# Data: patent publication US6682897B1, “Peptides derived from human heat protein 60 for treatment of diabetes, compositions, methods and kits” (Yeda Research and Development Co. Ltd., priority 1995, dated 2004)
# Values joined by “and” are separate entries in the source; they are usually repeats but may differ in a detail not shown here. Identical values can stand only once. Marks after values point to notes of the source that are not given here.
# Tests used:
# [1] = compared with p277; cited from earlier work
# [2] = system: draining lymph nodes; test: T-cell proliferative responses of NOD mice to peptides (Example 4, FIG. 3); type: cell-based; conditions: NOD mice immunized with 25 μg peptide in IFA, lymph nodes 10 days later, 20 μg/ml
# Protocol: FIG. 3 is a graph showing T-cell proliferative responses of NOD mice to peptides. Groups of three NOD mice were […] with peptides mouse p12, mouse p277, GAD-p35 and MT-p278 in IFA each at a dose of 25 μg in IFA. The draining lymph nodes were removed 10 days later and assayed for proliferative responses to the corresponding peptide at the concentrations of 5, 10, 20, and 50 μg/ml. The stimulation at the optimal concentration of 20 μg/ml is shown. The following ranges of cpm were obtained in medium controls: mouse p12, 881; mouse p277, 1243; MT-p278, 698 and GAD-p35 1430. Peptide mouse p38 is a peptide derived from mouse hsp60 (556-573), which has no sequence homology with the tested peptides and serves as a negative control of specificity. […] Each assay was done in triplicates for which the SD values are indicated by the bars. There was no cross-reactivity between the peptides (not shown).
# (§1) (iii) T-Cell proliferation to peptides. Mice. Nine week old NOD mice or mice of other strains were immunized in the hind foot pads with 0.1 ml of an emulsion containing 25 μg peptide in complete Freund's adjuvant (CFA; Difco, Detroit, Mich.) mixed with an equal volume of phosphate-buffered saline (PBS). The draining popliteal lymph nodes were removed 10 days later and suspensions of lymphocytes in triplicate cultures were tested for proliferation in the presence of the various peptides (5 μg/ml) using the incorporation of [^3H]-thymidine as described (Elias et al., 1991). The results are shown as the stimulation index (SI): the ratio of the mean cpm in the presence of the test peptide to the mean cpm of control cultures without the peptide. Standard errors were always less than 10% of the means.
# Spontaneous T cell responses in pre-diabetic NOD mice were detected to the mouse p277 peptide (Elias et al., 1991; Birk et al., 1996) and to larger fragments of the mouse hsp60 molecule that contained the mouse p277 sequence (Birk et al., 1996). […] Other peptides immunogenic for NOD mice are the MT-p278 peptide (residues 458-474 in the Mycobacterial hsp60 molecule), and GAD-p35 (residues 524-543 in the GAD65 molecule).
# [3] = system: spleens of female NOD mice; test: Spontaneous T-cell responses in spleens of female NOD mice (longitudinal study); type: cell-based; conditions: female NOD mice at ages 3-16 weeks
# [4] = system: female NOD mice; test: Peptide treatment of 10-week old NOD mice, development of diabetes (Example 4, FIG. 4); type: in vivo; conditions: single s.c. injection in IFA at 10 weeks, observed through 8 months of age, vs IFA alone
# Protocol: FIG. 4 is a graph showing the effect of peptide administration on diabetes. Groups of 10-20 NOD mice were treated at 10 weeks of age with 100 μg of mouse p12, p277, p35-GAD or MT-p278 in IFA, or IFA alone. The mice were bled monthly and followed for the onset of hyperglycemia.
# (§2) (iv) Treatment and follow-up. Peptides, […], in PBS, were emulsified with an equal volume of IFA and injected subcutaneously into 10-week-old NOD females as described (Elias and Cohen, 1995). Control mice received an equal volume of PBS emulsified in IFA. The mice were monitored monthly for non-fasting blood glucose at 10am using the Blood Glucose Sensor (MediSense. Inc., Waltham, Mass.). Mice with a blood glucose greater than 11.1 mmol/L were considered to be diabetic; this concentration of glucose was greater than 3 standard deviations above the mean blood glucose concentration measured in non-diabetic mice (Elias and Cohen, 1995). Histological examination of the islets of the pancreas was done on sections stained with hematoxylin and eosin. The sections were scored independently by two observers who both were unaware of the identity of the groups. The chi square test was used to ascertain the statistical differences between the various treatments.
# Following a protocol shown to be effective with mouse p277(Elias et al., 1991; Elias and Cohen, 1994; Elias and Cohen, 1995), groups of 10-week old female NOD mice were treatedby a single subcutaneous injection of each peptide ([…]) emulsified in IFA.
# [5] = system: serum antibodies of the IgG1, IgG2a and IgG2b isotypes; test: Serum anti-peptide antibody isotypes by ELISA in peptide-treated NOD mice (FIG. 5); type: in vivo; conditions: for antibody titers of the IgG1 and IgG2b isotypes: peptide-treated NOD mice, sera diluted 1:50, ELISA
# Protocol: FIGS. 5A-5D show the IgG1, IgG2a and IgG2b antibody isotypes in response to peptide treatment. Mice were treated as described in the legend to FIG. 4. Individual samples were analyzed for antibodies to mouse p12 A; p277 B; GAD-p35 C; and MT-p278 D, of the IgG1, IgG2a and IgG2b isotypes. Similar effects were obtained in two experiments. The results are presented as the absorbance at 405 nm (OD) of 10 individual mice in each group. The level of significance of the prevalence of IgG1 and IgG2b antibodies in groups A and B compared to C and D is P<0.001. The differences between the levels of IgG1 and IgG2b antibodies compared to the IgG2a antibodies in groups A and B were significant (P<0.001). There was no cross-reactivity between the antibodies (not shown).
# (v) Serum Antibodies. Mice were bled monthly to detect antibody responses. The ELISA assay was done as described (Elias et al., 1991). Briefly, flat bottom Maxi-sorb plates (Nunc, Roskilde, Denmark) were coated, for the detection of anti-peptide antibodies, with […] of peptide in PBS, at a concentration of […] for 2 h at room temperature followed by over night incubation at 4° C. After incubation with peptide, the plates were washed and blocked for 2 h at 37° C. with 7% BSA (Sigma) in PBS. Sera were diluted 1:50 then added for 2 h at 37° C., followed by incubation for 2 h with […] of goat anti-mouse IgG (gamma chain Fc specific) conjugated to alkaline phosphatase (Jackson, Philadelphia, Pa.). After washing, the plates were incubated with the substrate, diethanolamine (Sigma) and read using an ELISA reader at 405 nm.
# Successful treatment of STZ-induced diabetes with mouse peptide p277 was associated with the appearance of anti-peptide antibodies predominantly of the IgG1 and IgG2b isotypes (Elias and Cohen, 1996). The peptide-treated NOD mice for their serum antibodies was therefore examined. […] Thus, effectiveness in inhibiting diabetes was associated with the induction of an antibody response mainly of the IgG1 and IgG2b isotypes.
# [6] = system: draining popliteal lymph node lymphocytes; test: T-cell proliferation of draining lymph node cells of NOD mice immunized with hsp60 peptides in CFA (Example 1, FIG. 2); type: cell-based; conditions: NOD mice immunized with peptide emulsified in CFA in hind foot pads, assayed after 10 days
# Protocol: as §1, with “1991).” for “1991). The results are shown as the stimulation index (SI): the ratio of the mean cpm in the presence of the test peptide to the mean cpm of control cultures without the peptide. Standard errors were always less than 10% of the means.”
# The immunogenicity of the hsp60 peptides p12, p32, p277(Val^6-Val^11) and p278 in NOD mice was tested by immunizing the mice with the peptides emulsified in CFA in the hind foot pads, and assaying the proliferative responses of draining lymph node cells after 10 days as described above in section iii(a).
# [7] = system: NOD/Lt female mice; test: Treatment of NOD mice with peptides in IFA: diabetes and mortality (Example 2); type: in vivo; conditions: 100 μg peptide in IFA s.c., nine-week old NOD/Lt females; for Diabetes (%): persistent blood glucose over 11.1 mmol/l at 25 weeks of age
# Protocol: as §2, with “Mice with a blood glucose greater than 11.1 mmol/L were considered to be diabetic; this concentration of glucose was greater than 3 standard deviations above the mean blood glucose concentration measured in non-diabetic mice (Elias and Cohen, 1995).” left out
# To test whether the p12 and p32 peptides can block the progression of diabetes as p277(Val^6-Val^11), the p277(Val6-Val^11), p12 or p32 peptides (100 μg in a 0.1 cc emulsion of IFA) were administered subcutaneously to groups of 10-12 nine-week old NOD/Lt female mice of the Jackson Laboratory, Bar-Harbor, Me. Diabetes, determined as persistent blood glucose levels over 11.1 mmol/l, was tested at 25 weeks of age. Control mice were untreated or were treated with p278.
# [8] = system: Peripheral mononuclear cells (PBMC) of IDDM patients; test: T-cell proliferative response of PBMC from newly diagnosed IDDM patients (Example 3); type: cell-based, human; conditions: for T-cell proliferative response (SI): antigen 10 μg/ml, 6 days, SI more than 2.0 positive
# Protocol: To determine the T-cell responses to the various hsp60 peptides, lymphocytes from the peripheral blood of newly diagnosed (2 weeks-4 months) IDDM patients were tested in a proliferation assay. 10-20 ml of blood were removed into a sterile tube containing heparin as anti-coagulant and diluted in PBS 1:2. Peripheral mononuclear cells (PBMC) were isolated by centrifuging the blood over a lymphoprep layer. The PBMC were tested for proliferation in triplicates, in the presence of the various antigens (10 μg/ml) for 6 days using the incorporation of [^3H]-thymidine as a measure of proliferation. The antigens tested were human hsp60 or the hsp60 peptides p277(Val^6-Val^11), p12, p32 and control peptide p278. The T cell proliferative response is depicted as stimulation index (SI): The ratio between peptide-stimulated thymidine incorporation and background (no antigen added) thymidine incorporation by the T cells.
substance,measurement,setting,value
"p277(Val^11): p277 variant with cysteine at position 11 replaced by valine (VLGGGCALLRVIPALDSLTPANED; p277 peptide (437-460); UniProt P10809 437-460, looked up, variant C447V)",activity in the treatment of diabetes,[1],as active as p277
"mouse p277: mouse variant of p277, mouse hsp60 437-460; differs from human by 1 amino acid (VLGGGCALLRCIPALDSLKPANED; UniProt P63038 437-460, looked up, fragment)",immunogenicity (T-cell proliferative response),[2],strong response
same,spontaneous T-cell responses,[3],spontaneous responses were detected
same,development of diabetes,[4],effective in inhibiting the development of diabetes
same,antibody titers of the IgG1 and IgG2b isotypes,[5],effective in inducing strong antibody titers
"NEDQKIGIEIIKRTLKI [p278, human hsp60 residues 458-474; control peptide]",immunogenicity (proliferative responses of draining lymph node cells),[6],non-immunogenic
same,Mortality (%),[7],45%
same,therapeutic effect in treatment of diabetes,[7],no therapeutic effect
same,Diabetes (%),[7],90%
same,T-cell proliferative response (SI),[8]; Patient 1,0.5
same,T-cell proliferative response (SI),[8]; Patient 2,0.8
same,T-cell proliferative response (SI),[8]; Patient 3,0.7
same,T-cell proliferative response (SI),[8]; Patient 4,0.9
EEIAQVATISANGDKEIGNI [p12],immunogenicity (proliferative responses of draining lymph node cells),[6],strongly immunogenic
same,Mortality (%),[7],10* %
same,therapeutic effect in treatment of diabetes,[7],effective in treatment of diabetes
same,Diabetes (%),[7],20%
"SRLSKVAPVIKARMMEYGTT [GAD-p35, peptide from the GAD65 molecule (524-543)]",immunogenicity (T-cell proliferative response),[2],"immunogenic, but less so"
same,development of diabetes,[4],no different than was treatment with IFA alone
same,mice that made specific IgG1 antibodies,"[5]; 10 individual mice per group, ELISA",none
same,titers of IgG2b antibodies,[5]; compared with mouse p12 and mouse p277 groups,significantly lower titers
same,antibody titers of the IgG1 and IgG2b isotypes,[5],did not respond as strongly
hsp60: human 60 KDa heat shock protein (SEQ ID NO:1),T-cell proliferative response (SI),[8]; Patient 1,5.6
same,T-cell proliferative response (SI),[8]; Patient 2,7.5
same,T-cell proliferative response (SI),[8]; Patient 3,8.0
same,T-cell proliferative response (SI),[8]; Patient 4,3.4
same,T-cell proliferative response (SI),[8]; Patient 5,1.2
same,T-cell proliferative response (SI),[8]; Patient 6,6.7
same,T-cell proliferative response (SI),[8]; Patient 7,10.3
same,T-cell proliferative response (SI),[8]; Patient 8,1.3
same,patients that responded,"[8]; of 8 newly diagnosed IDDM patients, SI more than 2.0",6/8
"p277(Val^6): p277 variant with cysteine at position 6 replaced by valine (VLGGGVALLRCIPALDSLTPANED; p277 peptide (437-460); UniProt P10809 437-460, looked up, variant C442V)",activity in the treatment of diabetes,[1],as active as p277
EIIKRTLKIPAMTIAKNAGV [p32],immunogenicity (proliferative responses of draining lymph node cells),[6],strongly immunogenic
same,Mortality (%),[7],25* %
same,therapeutic effect in treatment of diabetes,[7],effective in treatment of diabetes
same,Diabetes (%),[7],30% and 50* %
